Entries after “also recorded” stand apart in the source; their conditions may differ.
How the values were obtained:
[1] = tested on: wild-type (WT) iPSC-microglia; assay: LIVE/DEAD two-color viability/cytotoxicity, WT microglia; format: cell-based, human; settings: 500 nM or 1 uM, 24 hours
Experimental: (§1) FIGS. 5A and 5B show G795A iPSC-derived microglia are resistant to CSF1R antagonist-induced cell death. As cells can die from processes other than caspase-mediated apoptosis, it is important to determine whether the G795A mutation provides a more broad-based resistance to any form of cell death induced by CSF1R antagonists, Therefore, G795A and wild-type (WT) iPSC-microglia were treated for 24 hours with either 500 nM (FIG, 5A) or 1 uM (FIG. 5B) of DMSO vehicle control or one of four CSF1R antagonists; PLX3397, PLX5622, Edicotinib, and BLZ945. The percent of live versus dead cells was then quantified using a two-color viability/cytotoxicity approach (Thermo L3224; LIVE/DEAD™ Viability/Cytotoxicity Kit). Very few dead microglia are observed 24 hours after treatment with DMSO. […] Live cells are denoted with a circle, […]

[2] = tested on: G795A iPSC-microglia; assay: LIVE/DEAD two-color viability/cytotoxicity, G795A microglia; format: cell-based, human; settings: 500 nM or 1 uM, 24 hours
Experimental: as §1

[3] = tested on: G795A iPSC-microglia; assay: Cell death assay (fluorogenic caspase 3/7, IncuCyte time-lapse imaging), G795A microglia; format: cell-based, human; settings: 250 nM, 500 nM, 1 μm, 24 hours, compared to DMSO control
Description: (§2) FIGS. 4A, 4B, 4C, 4D, and 4E show human stem cell-derived microglia are also susceptible to and killed by CSF1R inhibition in vitro. […] Images captured on Incucyte S3 live-cell imager. […] Images captured on Incucyte S3 live-cell imager. […] Images captured on Incucyte S3 live-cell imager. […] Images captured on Incucyte S3 live-cell imager. […] For all panels, n=4 images in six independent wells were quantified. Data represented as mean values±SEM.
(§3) Strategy 1: A crystal structure of the CSF1R receptor bound to an antagonist (PMID: 31434879) to predict amino acid substitutions that may sterically hinder the binding of CSF1R antagonists while not impairing the normal binding of ATP into the same binding pocket. The crystal structure of PLX5622 bound to human CSF1R was obtained and the ATP binding pocket was examined (FIG. 7A). Through molecular modeling single amino acid changes were predicted that would likely impair the binding of PLX5622 or PLX3397 or other CSF1R antagonists while not disrupting normal ATP binding to CSF1R. […] Other mutations could also be explored to prevent binding (FIG. 7D). […] The resulting iPSCs were then differentiated into microglia and exposed to varying concentrations of either PLX3397 or PLX5622. To detect microglial cell death (apoptosis) a caspase-3/7 fluorogenic reporter was used. […] FIG. 4F provided representative images of cell density (phase-contrast microscopy, 1st column) and fluorescent Caspase-3/7 activity (2nd column) across each dose of PLX3397 and PLX5622.
(§4) Resistance to each of the CSF1R inhibitors tested was quantified using a fluorogenic caspase 3/7 detector (Essen BioScience) and time-lapse imaging over 24 hours.
(§5) Cell death assay: iPS-microglia were plated at 70K cells per 96-well plate (6 wells per line per condition). At time 0, all microglia were treated with IncuCyte Caspase-3/7 Green Apoptosis Assay Reagent 1:1000. Cells were maintained in the described medium: fresh complete medium+0.1% DMSO, complete media+250 nM PLX3397, complete medium+500 nM PLX3397, complete medium+[…] PLX3397, complete medium+250 nM PLX5622, complete medium+500 nM PLX5622, complete medium +[…] PLX5622, complete medium+250 nM Edicotinib, complete medium+500 nM Edicotinib, complete medium +1 μm Edicotinib, complete medium+250 nM BLZ945, complete medium+500 nM BLZ945, complete medium +1 μm BLZ945. Four 20× images per well were collected every hour for 24 hours. Using IncuCyte 2020B software, image masks for phase confluence (visually gated out apoptotic cells) as well as caspase 3/7 signal (green) were generated. Graphs display caspase normalized to phase confluence, completed with 3 lines: WT, G795A, G795C (see FIGS. 4A, 4B, 4C, 4D, and 4E).

[4] = tested on: G795C iPSC-microglia; assay: Cell death assay (fluorogenic caspase 3/7, IncuCyte time-lapse imaging), G795C microglia; format: cell-based, human; settings: 250 nM, 500 nM, 1 μm, 24 hours, compared to DMSO control
Description: as §2, §3, §4, §5

[5] = tested on: wild-type (WT) unedited human iPSC-microglia; assay: Cell death assay (fluorogenic caspase 3/7, IncuCyte time-lapse imaging), WT microglia; format: cell-based; settings: 250 nM, 500 nM, 1 μm, 24 hours, compared to DMSO control
Description: as §2, §3, §4, §5

[6] = tested on: G795A xMGs; assay: PLX3397 chow treatment of xenotransplanted mice, G795A xMGs (IBA-1/Ku80/Ki67 immunohistochemistry); format: in vivo, human; settings: 600 mg/kg of PLX3397 in rodent chow ad libitum, 4 weeks
Description: (§6) FIGS. 11A, 11B, 11C, 11D, 11E, 11F, 11G, 11H, 11I, and 11J show G795A iPSC-derived microglia are resistant to CSF1R […] treatment and enable robust engraftment of human microglia within the adult mammalian brain. Xenotransplantation-compatible mice received bilateral stereotactic intrahippocampal injections of 500,000 iPSC-derived human microglia (xMGs) at 2-months of age. Mice received xMGs differentiated from either a homozygous CSF1R-resistant G795A human iPSC line or an isogenic unmodified Wild-Type human i PSC. At fours of age, mice were treated with 600 mg/kg of PLX3397 in rodent chow ad libitum for 4 weeks duration. Mice were then sacrificed, and half-brains were examined by fluorescent immunohistochemistry and confocal microscopy.

[7] = tested on: wild-type human xMGs; assay: PLX3397 chow treatment of xenotransplanted mice, wild-type xMGs (IBA-1/Ku80/Ki67 immunohistochemistry); format: in vivo, mouse; settings: 600 mg/kg of PLX3397 in rodent chow ad libitum, 4 weeks
Description: as §6

[8] = tested on: MUT1 (i.e., G795A) microglia; assay: RNA-seq transcriptomic response to PLX5622, MUT1 (G795A) microglia; format: cell-based, human; settings: 24-hour treatment, compared to DMSO-treated cells
Description: (§7) FIGS. 2A, 2B, 2C, 2D, 2E, and 2F show selected CSF1R mutations have little effect on transcriptomic signature while simultaneously imparting resistance to PLX5622.

[9] = tested on: WT microglia; assay: RNA-seq transcriptomic response to PLX5622, WT microglia; format: cell-based, human; settings: 24-hour treatment, compared to DMSO-treated cells
Description: as §7

[10] = tested on: MUT2 (i.e., G795C) microglia; assay: RNA-seq transcriptomic response to PLX5622, MUT2 (G795C) microglia; format: cell-based, human; settings: 24-hour treatment, compared to DMSO-treated cells
Description: as §7

Structure (SMILES) | cell death (percent of live versus dead cells) [1] | cell death (percent of live versus dead cells) [2] | caspase 3/7 levels (cell death / apoptosis) [3] | caspase 3/7 levels (cell death / apoptosis) [4] | caspase 3/7 levels (cell death / apoptosis) [5] | survival / expansion of transplanted human xMGs in mouse brain [6] | survival of transplanted human xMGs in mouse brain [7] | transcriptomic alterations (FDR≤0.05; log2(FC)≥±1) [8] | transcriptomic alterations (FDR≤0.05; log2(FC)≥±1) [9] | transcriptomic alterations (FDR≤0.05; log2(FC)≥±1) [10]
CNC(=O)c1cc(Oc2ccc3nc(N[C@@H]4CCCC[C@H]4O)sc3c2)ccn1 [BLZ945] | substantial cell death | little-to-no cell death | no significant increase in caspase levels | no significant increase in caspase levels | significant levels of increased caspase | – | – | – | – | –
CC1(C)CC=C(c2nc(C3CC(C)(C)OC(C)(C)C3)ccc2NC(=O)c2nc(C#N)c[nH]2)CC1 [Edicotinib] | substantial cell death | little-to-no cell death | no significant increase in caspase levels | no significant increase in caspase levels | significant levels of increased caspase | – | – | – | – | –
FC(F)(F)c1ccc(CNc2ccc(Cc3c[nH]c4ncc(Cl)cc34)cn2)cn1 [PLX3397] | substantial cell death | little-to-no cell death | complete resistance to cell death; also recorded: no significant increase in caspase levels | complete resistance to cell death; also recorded: no significant increase in caspase levels | robust dose-dependent induction of apoptosis; also recorded: significant levels of increased caspase | proliferate and expand from the initial injection sites | only a handful of wild-type human xMGs survive | – | – | –
COc1ncc(F)cc1CNc1ccc(Cc2c[nH]c3ncc(C)cc23)c(F)n1 [PLX5622] | substantial cell death | little-to-no cell death | complete resistance to cell death; also recorded: no significant increase in caspase levels | complete resistance to cell death; also recorded: no significant increase in caspase levels | robust dose-dependent induction of apoptosis; also recorded: significant levels of increased caspase | – | – | failed to significantly alter gene expression | induced significant transcriptomic alterations | failed to significantly alter gene expression
